Assay results as given in patent US20250325534A1, “MICROBIOCIDAL TETRAHYDROISOQUINOLINE DERIVATIVES” (SYNGENTA CROP PROTECTION AG, priority 2021, published 2025).

Key:
Glomerella lagenarium = Glomerella lagenarium (Colletotrichum lagenarium) / liquid culture (anthracnose); format: cell-based; details: Colletotrichum orbiculare, 72 h, photometrically 3-4 days after application, read-out: control of Glomerella lagenarium
How it was run: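 Conidia in potato dextrose broth added to test compound delivered as DMSO solution in microtiter plates; incubation at 24° C. Growth inhibition read photometrically 3-4 days after application.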

Monographella nivalis = Monographella nivalis (Microdochium nivale) / liquid culture (foot rot cereals); format: cell-based; details: 96 h, photometrically 4-5 days after application, read-out: control of Monographella nivalis
How it was run: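 Microdochium nivale conidia in potato dextrose broth were added to test compound in DMSO and incubated at 24° C. Growth inhibition was measured photometrically 4-5 days after application.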

[1] = system: Puccinia recondita f. sp. tritici; experiment: Puccinia recondita f. sp. tritici / wheat / leaf disc preventative (brown rust); format: in vivo; details: foliar, inoculated 1 day after application
Protocol: Example B14: Puccinia recondita f. Sp. Tritici/Wheat/Leaf Disc Preventative (Brown Rust) Wheat leaf segments cv. Kanzler are placed on agar in multiwell plates (24-well format) and sprayed with the formulated test compound diluted in water. The leaf disks are inoculated with a spore suspension of the fungus 1 day after application. The inoculated leaf segments are incubated at 19° C. and 75% relative humidity under a light regime of 12 h light/12 h darkness in a climate cabinet and the activity of a compound is assessed as percent disease control compared to untreated when an appropriate level of disease damage appears in untreated check leaf segments (7-9 days after application).

[2] = system: Mycosphaerella graminicola; experiment: Mycosphaerella graminicola (Septoria tritici) / liquid culture (Septoria blotch); format: cell-based; details: Zymoseptoria tritici, 96 h, photometrically 4-5 days after application, read-out: control of Mycosphaerella graminicola
How it was run: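 Conidia from cryogenic storage mixed into potato dextrose broth, added to test compound in DMSO. Plates incubated at 24° C; growth inhibition read photometrically 4-5 days after application.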

Mycosphaerella arachidis = Mycosphaerella arachidis (Cercospora arachidicola) / liquid culture (early leaf spot); format: cell-based; details: 96 h, photometrically 4-5 days after application, read-out: control of Mycosphaerella arachidis
How it was run: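 Cryostored M. arachidis conidia in potato dextrose broth were added to compound applied as DMSO solution. Incubated at 24 °C; growth inhibition measured photometrically 4-5 days after application.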

Alternaria solani = Alternaria solani / tomato / leaf disc (early blight); format: in vivo; details: foliar, inoculated 2 days after application, vs untreated control
Botryotinia fuckeliana = Botryotinia fuckeliana (Botrytis cinerea) / liquid culture (gray mould); format: cell-based; details: 72 h, growth inhibition photometrically 3-4 days after application, read-out: control of Botryotinia fuckeliana
Protocol: Example B2: Botryotinia Fuckeliana (Botrytis cinerea)/Liquid Culture (Gray Mould) Conidia of the fungus from cryogenic storage are directly mixed into a nutrient broth (Vogels broth). After placing a DMSO solution of test compound into a microtiter plate (96-well format), the nutrient broth containing the fungal spores is added. The test plates are incubated at 24° C. and the inhibition of growth is determined photometrically 3-4 days after application.

[3] = system: Blumeria graminis f. sp. tritici; experiment: Blumeria graminis f. sp. tritici / wheat / leaf disc preventative (powdery mildew); format: in vivo; details: foliar, inoculated 1 day after application
Protocol: Example B7: Blumeria graminis f. Sp. Tritici (Erysiphe graminis f. Sp. Tritici)/Wheat/Leaf Disc Preventative (Powdery Mildew on Wheat) Wheat leaf segments cv. Kanzler are placed on agar in a multiwell plate (24-well format) and sprayed with the formulated test compound diluted in water. The leaf disks are inoculated by shaking powdery mildew infected plants above the test plates 1 day after application. The inoculated leaf disks are incubated at 20° C. and 60% relative humidity under a light regime of 24 h darkness followed by 12 h light/12 h darkness in a climate chamber and the activity of a compound is assessed as percent disease control compared to untreated when an appropriate level of disease damage appears on untreated check leaf segments (6-8 days after application).

Phaeosphaeria nodorum = Phaeosphaeria nodorum (Septoria nodorum) / wheat / leaf disc preventative (glume blotch); format: in vivo; details: Parastagonospora nodorum, foliar, inoculated 2 days after application
Protocol: Example B9: Phaeosphaeria nodorum (Septoria nodorum)/Wheat/Leaf Disc Preventative (Glume Blotch) Wheat leaf segments cv. Kanzler are placed on agar in a multiwell plate (24-well format) and sprayed with the formulated test compound diluted in water. The leaf disks are inoculated with a spore suspension of the fungus 2 days after application. The inoculated test leaf disks are incubated at 20° C. and 75% relative humidity under a light regime of 12 h light/12 h darkness in a climate cabinet and the activity of a compound is assessed as percent disease control compared to untreated when an appropriate level of disease damage appears in untreated check leaf disks (5-7 days after application).

Pyrenophora teres = Pyrenophora teres / barley / leaf disc preventative (net blotch); format: in vivo; details: foliar, inoculated 2 days after application
Protocol: Example B16: Pyrenophora teres/Barley/Leaf Disc Preventative (Net Blotch) Barley leaf segments cv. Hasso are placed on agar in a multiwell plate (24-well format) and sprayed with the formulated test compound diluted in water. The leaf segments are inoculated with a spore suspension of the fungus 2 days after application. The inoculated leaf segments are incubated at 20° C. and 65% relative humidity under a light regime of 12 h light/12 h darkness in a climate cabinet and the activity of a compound is assessed as disease control compared to untreated when an appropriate level of disease damage appears in untreated check leaf segments (5-7 days after application).

Cn1cc(C2CN(C(=O)c3cc(-c4cccs4)on3)Cc3ccccc32)cn1 (stereo not drawn) [Compound P-206, [4-(1-methylpyrazol-4-yl)-3,4-dihydro-1H-isoquinolin-2-yl]-[5-(2-thienyl)isoxazol-3-yl]methanone]
≥ 80%: inhibition of growth at 20 ppm (Glomerella lagenarium) | inhibition of growth at 20 ppm (Monographella nivalis) | pest or weed control at 200 ppm [1] | inhibition of growth at 20 ppm [2]

Cc1cc(C(=O)N2Cc3ccccc3C(c3cnn(C)c3)C2)no1 (stereo not drawn) [Compound P-194, (5-methylisoxazol-3-yl)-[4-(1-methylpyrazol-4-yl)-3,4-dihydro-1H-isoquinolin-2-yl]methanone]
≥ 80%: inhibition of growth at 20 ppm (Glomerella lagenarium) | inhibition of growth at 20 ppm (Monographella nivalis) | inhibition of growth at 20 ppm (Mycosphaerella arachidis) | pest or weed control at 200 ppm [1] | inhibition of growth at 20 ppm [2]

CC1c2ccccc2C(c2cnn(C)c2)CN1C(=O)c1cc(-c2ccc(F)cc2F)on1 (stereo not drawn) [Compound P-141, [5-(2,4-difluorophenyl)isoxazol-3-yl]-[1-methyl-4-(1-methylpyrazol-4-yl)-3,4-dihydro-1H-isoquinolin-2-yl]methanone]
≥ 80%: pest or weed control at 200 ppm (Alternaria solani) | inhibition of growth at 20 ppm (Botryotinia fuckeliana) | inhibition of growth at 20 ppm (Glomerella lagenarium) | pest or weed control at 200 ppm [3] | pest or weed control at 200 ppm (Phaeosphaeria nodorum) | inhibition of growth at 20 ppm (Monographella nivalis) | inhibition of growth at 20 ppm (Mycosphaerella arachidis) | pest or weed control at 200 ppm (Pyrenophora teres) | inhibition of growth at 20 ppm [2]

C#Cc1ccc(-c2cc(C(=O)N3Cc4ccccc4C(c4cnn(C)c4)C3)no2)c(F)c1 (stereo not drawn) [Compound P-31, [5-(4-ethynyl-2-fluoro-phenyl)isoxazol-3-yl]-[4-(1-methylpyrazol-4-yl)-3,4-dihydro-1H-isoquinolin-2-yl]methanone]
≥ 80%: pest or weed control at 200 ppm [1]

Cc1c(C2CN(C(=O)c3cc(-c4ccc(F)cc4)on3)Cc3ccccc32)cnn1C (stereo not drawn) [Compound P-120, [4-(1,5-dimethylpyrazol-4-yl)-3,4-dihydro-1H-isoquinolin-2-yl]-[5-(4-fluorophenyl)isoxazol-3-yl]methanone]
≥ 80%: pest or weed control at 200 ppm (Alternaria solani) | inhibition of growth at 20 ppm (Botryotinia fuckeliana) | inhibition of growth at 20 ppm (Glomerella lagenarium) | pest or weed control at 200 ppm (Phaeosphaeria nodorum) | inhibition of growth at 20 ppm (Monographella nivalis) | inhibition of growth at 20 ppm (Mycosphaerella arachidis) | pest or weed control at 200 ppm (Pyrenophora teres) | inhibition of growth at 20 ppm [2]

Cn1ncc(C2CN(C(=O)c3cc(-c4ccc(F)cc4F)on3)Cc3ccccc32)c1Br (stereo not drawn) [Compound P-45, [4-(5-bromo-1-methyl-pyrazol-4-yl)-3,4-dihydro-1H-isoquinolin-2-yl]-[5-(2,4-difluorophenyl)isoxazol-3-yl]methanone]
≥ 80%: pest or weed control at 200 ppm (Alternaria solani) | inhibition of growth at 20 ppm (Botryotinia fuckeliana) | inhibition of growth at 20 ppm (Glomerella lagenarium) | pest or weed control at 200 ppm (Phaeosphaeria nodorum) | inhibition of growth at 20 ppm (Monographella nivalis) | inhibition of growth at 20 ppm (Mycosphaerella arachidis) | pest or weed control at 200 ppm (Pyrenophora teres) | inhibition of growth at 20 ppm [2]

COc1ccc2c(c1)CN(C(=O)c1cc(-c3ccc(F)cc3F)on1)CC2c1cnn(C)c1 (stereo not drawn) [Compound P-51, [5-(2,4-difluorophenyl)isoxazol-3-yl]-[7-methoxy-4-(1-methylpyrazol-4-yl)-3,4-dihydro-1H-isoquinolin-2-yl]methanone]
≥ 80%: pest or weed control at 200 ppm (Alternaria solani) | inhibition of growth at 20 ppm (Glomerella lagenarium) | pest or weed control at 200 ppm (Phaeosphaeria nodorum) | inhibition of growth at 20 ppm (Monographella nivalis) | inhibition of growth at 20 ppm (Mycosphaerella arachidis) | pest or weed control at 200 ppm (Pyrenophora teres) | inhibition of growth at 20 ppm [2]

Cc1c(C2CN(C(=O)c3cc(-c4ccccc4F)no3)Cc3ccccc32)cnn1C (stereo not drawn) [Compound P-110, [4-(1,5-dimethylpyrazol-4-yl)-3,4-dihydro-1H-isoquinolin-2-yl]-[3-(2-fluorophenyl)isoxazol-5-yl]methanone]
≥ 80%: pest or weed control at 200 ppm (Alternaria solani) | inhibition of growth at 20 ppm (Botryotinia fuckeliana) | inhibition of growth at 20 ppm (Glomerella lagenarium) | pest or weed control at 200 ppm (Phaeosphaeria nodorum) | inhibition of growth at 20 ppm (Monographella nivalis) | inhibition of growth at 20 ppm (Mycosphaerella arachidis) | pest or weed control at 200 ppm (Pyrenophora teres) | inhibition of growth at 20 ppm [2]

CC1c2ccccc2C(C)(c2cnn(C)c2F)CN1C(=O)c1cc(-c2ccc(F)cc2F)on1 (stereo not drawn) [Compound P-11, [5-(2,4-difluorophenyl)isoxazol-3-yl]-[4-(5-fluoro-1-methyl-pyrazol-4-yl)-1,4-dimethyl-1,3-dihydroisoquinolin-2-yl]methanone]
≥ 80%: pest or weed control at 200 ppm (Alternaria solani) | inhibition of growth at 20 ppm (Botryotinia fuckeliana) | inhibition of growth at 20 ppm (Glomerella lagenarium) | pest or weed control at 200 ppm [3] | pest or weed control at 200 ppm (Phaeosphaeria nodorum) | inhibition of growth at 20 ppm (Monographella nivalis) | inhibition of growth at 20 ppm (Mycosphaerella arachidis) | inhibition of growth at 20 ppm [2]

CC1c2ccc(OCC(F)(F)F)cc2C(C)(c2cnn(C)c2)CN1C(=O)c1cc(-c2ccc(F)cc2F)on1 (stereo not drawn) [Compound P-34, [5-(2,4-difluorophenyl)isoxazol-3-yl]-[1,4-dimethyl-4-(1-methylpyrazol-4-yl)-6-(2,2,2-trifluoroethoxy)-1,3-dihydroisoquinolin-2-yl]methanone]
≥ 80%: inhibition of growth at 20 ppm (Monographella nivalis) | inhibition of growth at 20 ppm (Mycosphaerella arachidis) | pest or weed control at 200 ppm [1] | inhibition of growth at 20 ppm [2]

Cn1cc(C2CN(C(=O)c3cc(-c4ccc(F)cc4F)no3)Cc3ccccc32)cn1 (stereo not drawn) [Compound P-151, [3-(2,4-difluorophenyl)isoxazol-5-yl]-[4-(1-methylpyrazol-4-yl)-3,4-dihydro-1H-isoquinolin-2-yl]methanone]
≥ 80%: pest or weed control at 200 ppm (Alternaria solani) | inhibition of growth at 20 ppm (Botryotinia fuckeliana) | inhibition of growth at 20 ppm (Glomerella lagenarium) | pest or weed control at 200 ppm [3] | pest or weed control at 200 ppm (Phaeosphaeria nodorum) | inhibition of growth at 20 ppm (Monographella nivalis) | inhibition of growth at 20 ppm (Mycosphaerella arachidis) | pest or weed control at 200 ppm (Pyrenophora teres) | inhibition of growth at 20 ppm [2]

C[C@H]1c2ccccc2[C@@](C)(c2cnn(C)c2)CN1C(=O)c1cc(-c2ccccc2)on1 [Compound P-2, [(1S,4S)-1,4-dimethyl-4-(1-methylpyrazol-4-yl)-1,3-dihydroisoquinolin-2-yl]-(5-phenylisoxazol-3-yl)methanone]
≥ 80%: pest or weed control at 200 ppm (Alternaria solani) | pest or weed control at 200 ppm (Phaeosphaeria nodorum) | inhibition of growth at 20 ppm (Monographella nivalis) | inhibition of growth at 20 ppm (Mycosphaerella arachidis) | pest or weed control at 200 ppm (Pyrenophora teres) | inhibition of growth at 20 ppm [2]

CCc1ccc(-c2cc(C(=O)N3Cc4ccccc4C(c4cnn(C)c4)C3)no2)cc1 (stereo not drawn) [Compound P-171, [5-(4-ethylphenyl)isoxazol-3-yl]-[4-(1-methylpyrazol-4-yl)-3,4-dihydro-1H-isoquinolin-2-yl]methanone]
≥ 80%: pest or weed control at 200 ppm [1]

Cc1c(C2CN(C(=O)c3nnc(-c4ccc(F)cc4)s3)Cc3ccccc32)cnn1C (stereo not drawn) [Compound P-63, [4-(1,5-dimethylpyrazol-4-yl)-3,4-dihydro-1H-isoquinolin-2-yl]-[5-(4-fluorophenyl)-1,3,4-thiadiazol-2-yl]methanone]
≥ 80%: pest or weed control at 200 ppm (Alternaria solani) | inhibition of growth at 20 ppm (Botryotinia fuckeliana) | inhibition of growth at 20 ppm (Glomerella lagenarium) | pest or weed control at 200 ppm [3] | pest or weed control at 200 ppm (Phaeosphaeria nodorum) | inhibition of growth at 20 ppm (Monographella nivalis) | inhibition of growth at 20 ppm (Mycosphaerella arachidis) | pest or weed control at 200 ppm (Pyrenophora teres) | inhibition of growth at 20 ppm [2]
